Measurements: patent publication US20140051696A1, “THERAPIES FOR TREATING CANCER” (GILEAD CALISTOGA LLC, priority 2012, published 2014)
“Also recorded” adds a separate entry of the source. Read-outs that look alike come from different tables or passages of the source.

Columns and labels:
CCL2, CCL3, and CCL4 = experiment: Chemokine release ELISA, CLL patient samples in conditioned media; type: cell-based, human; conditions: patient samples cultured in conditioned media; alone and in combination
Method: (§3) In this Example, CLL patient samples were assessed for growth inhibition, chemokine release, and pathway activation status using a tetrazolium-based MTS assay, ELISA, and flow cytometry, respectively. Peripheral blood mononuclear cells (PBMCs) were isolated from primary patient samples using a Ficoll-Paque gradient. […] 5×10^5 primary cells were cultured in triplicate in HS-5 stromal cell conditioned media and growth inhibition was determined after 72 hours.

[1] = test system: AKT phosphorylation (S473) in CLL cells; experiment: Flow cytometry phospho-Akt in CLL cells co-cultured with HS5 stromal cells; type: cell-based, human; conditions: CLL cells of 15 patients co-cultured with HS5 stromal cells
Excerpt: (§1) Ficoll purified CLL cells obtained from 15 patients were co-cultured with HS5 stromal cells then treated with each compound alone or in combination. CLL cells were stained with anti-CD5-FITC and either anti-phospho-Akt S473 (Alexa Fluor 488), phospho-S6 or an […] control antibody (mouse IgG1-Alexa Fluor 488 conjugate, Cell Signaling) and analyzed by 2-color flow cytometry.

[2] = test system: ERK phosphorylation (T202/Y204) in Ramos cells; experiment: Immunoblot phospho-Erk in Ramos cells after anti-IgM BCR stimulation; type: cell-based, human; conditions: 1 uM each, IgM mediated BCR stimulation
Method: (§2) 5×10^6 Ramos (a Burkitt's cell line with intact BCR) were plated and treated with 1 uM of Compound A, 1 uM of Compound B, alone or in combination for 25 hours. Twenty μg Goat F(ab′)2 anti-human IgM (Invitrogen) was added to stimulate the BCR for 30 minutes. Protein were isolated and analyzed using immune-blotting with phospho-Akt (S473), phospho-Erk (T202/Y204), and phospho-S6.

primary CLL cells = experiment: MTS cell viability assay of primary CLL cells in HS-5 conditioned media; conditions: Homo sapiens
Method: as §3
Peripheral blood (PB) or bone marrow (BM) was collected from 14 CLL patients with untreated, relapsed, or refractory diseases. Mononuclear cells were isolated using a Ficoll-Paque gradient and were plated in triplicate into 96-well containing HS-5 conditioned media plus equimolar concentrations of Compound A and Compound B (10 μM to 0.61 nM). After 72 hours, viability was determined by MTS assay (CellTiter 96, Promega).

[3] = test system: AKT phosphorylation (S473) in Ramos cells; experiment: Immunoblot phospho-Akt in Ramos cells after anti-IgM BCR stimulation; type: cell-based, human; conditions: 1 uM each, IgM mediated BCR stimulation
Method: as §2

[4] = Plasma pharmacokinetics in healthy human subjects, alone or in combination; conditions: for AUC / Cmax: human, Mean (% CV); for AUC: AUCtau
Method: On Day 1, PK samples were collected at pre-dose, 2, 4, 8, and 12 hours post dose. On Day 4, samples were collected relative to the AM dose of study drug(s) at the following time points: pre-dose, 1, 2, 2.5, 3, 4, 6, 8, 10, 12, 18, 24, 36, and 48 hours post dose. Trough PK samples were collected on Day 3 prior to dosing.

[5] = Safety and tolerability in healthy human subjects; conditions: for tolerability: over the dose range evaluated, healthy subjects
Excerpt: The endpoints evaluated include AEs, physical examination and clinical laboratory test findings, 12-lead ECG abnormalities and interval measurements, and vitals signs measurements.
Safety data for each cohort was reviewed after the 10-day observation period following each 4 day treatment period. Subsequent treatments in each cohort were only initiated following post dose safety assessments.

[6] = test system: S6 phosphorylation in CLL cells; experiment: Flow cytometry phospho-S6 in CLL cells co-cultured with HS5 stromal cells; type: cell-based, human; conditions: CLL cells of 15 patients co-cultured with HS5 stromal cells
Excerpt: as §1

recurrent CLL = conditions: cited from earlier work; for median progression-free survival (PFS): patients with recurrent CLL
[7] = test system: WSU-FSCCL resistant cells; experiment: AlamarBlue growth inhibition, WSU-FSCCL resistant cells; type: cell-based, human; conditions: 72 hr
Method: The WSU-FSCCL parental cells were, initially, responsive to treatment of Compound A (FIG. 10A). […] Such cells were cultured and referred to as WSU-FSCCL resistant cells. This reflects a commonly observed clinical situation that patients become resistance or no longer respond to the existing treatment. Both the parental and the resistant cells of WSU-FSCCL were used in this study. […] The […] cells were added with the compounds in the serial dilution and incubated at 37° C. for 72 hr, followed by the addition of 12.5 μL AlamarBlue (Invitrogen #DAL1100). Plates were then incubated at 37° C. for 4 hours. The change of color from uptake of the stains in the living cells was measured for absorbance. Fluorescence Ex530, Em590, Cutoff570 on Spectramax M5 (Molecular Dynamics) were determined.

WSU-FSCCL parental cells = experiment: AlamarBlue growth inhibition, WSU-FSCCL parental cells; type: cell-based, human; conditions: initially, 72 hr
Method: The WSU-FSCCL parental cells were, initially, responsive to treatment of Compound A (FIG. 10A). […] Such cells were cultured and referred to as WSU-FSCCL resistant cells. This reflects a commonly observed clinical situation that patients become resistance or no longer respond to the existing treatment. Both the parental and the resistant cells of WSU-FSCCL were used in this study.
A 7× serial dilution of Compound A and Compound C from a stock of 10 mM (DMSO) was prepared using RPMI+10% FBS (270 μM). The WS-FSCCL cells were added with the compounds in the serial dilution and incubated at 37° C. for 72 hr, followed by the addition of 12.5 μL AlamarBlue (Invitrogen #DAL1100). Plates were then incubated at 37° C. for 4 hours.
The change of color from uptake of the stains in the living cells was measured for absorbance. Fluorescence Ex530, Em590, Cutoff570 on Spectramax M5 (Molecular Dynamics) were determined. To calculate the 50% inhibition of growth (GI50), the reading from the samples were compared to the controls (100% or 0% absorption).

[8] = Compound B analyte, Compound B 200 mg + Compound A 100 mg vs Compound B 200 mg
[9] = Compound B analyte, Compound B 600 mg + Compound A 100/150 mg vs Compound B 600 mg
[10] = in vivo, 200 mg, Compound B analyte, Compound B 200 mg BID alone, fed (N = 8)
[11] = in vivo, 600 mg, Compound B analyte, Compound B 600 mg BID alone, fed (N = 16)
[12] = in vivo, Compound B analyte, Compound B 200 mg + Compound A 100 mg BID, fed (N = 8)
[13] = in vivo, Compound B analyte, Compound B 600 mg + Compound A 100/150 mg BID, fed (N = 14)
[14] = Compound A analyte, Compound A 150 mg + Compound B 600 mg vs Compound A 150 mg
[15] = Compound A analyte, Compound A 100 + Compound B 200 or 600 mg vs Compound A 100 mg
[16] = plasma, oral, 100 mg, Compound A analyte, Compound A 100 mg BID alone, fed (N = 16)
[17] = plasma, oral, 150 mg, Compound A analyte, Compound A 150 mg BID alone, fed (N = 7)
[18] = plasma, oral, Compound A analyte, Compound A 150 mg + Compound B 600 mg BID, fed (N = 6)
[19] = plasma, oral, Compound A analyte, Compound A 100 + Compound B 200 or 600 mg BID, fed (N = 16)

## c1cn2cc(-c3ccc4cn[nH]c4c3)nc(Nc3ccc(N4CCOCC4)cc3)c2n1 [Compound B, 6-(1H-indazol-6-yl)-N-(4-morpholinophenyl)imidazo[1,2-a]pyrazin-8-amine]
CCL2, CCL3, and CCL4
  production of CCL2, CCL3, and CCL4 by CLL cells: reduced
[1]
  AKT phosphorylation in CLL cells: inhibited or decreased
[2]
  ERK phosphorylation in Ramos cells: inhibit or reduced; also recorded: near complete inhibition or reduction
Primary CLL cells; 72 h, read-out: median cell viability IC50
  IC50: 3.7 µM
Primary CLL cells; read-out: cell viability IC50 obtained in 7 samples (50%)
  IC50: ≤ 2 µM
[3]
  AKT phosphorylation in Ramos cells: inhibited or decreased
[4]; Compound B analyte, Compound B 200 mg + Compound A 100 mg BID, fed (N = 8)
  Ctau, Mean (% CV): 380 (62) ng/ml
[4]; [8]
  AUCtau, % Geometric Least Squares Means Ratio (90% CI), Combination vs. Alone: 1.64 (1.41, 1.91) %
  Cmax, % Geometric Least Squares Means Ratio (90% CI), Combination vs. Alone: 1.50 (1.24, 1.80) %
  Ctau, % Geometric Least Squares Means Ratio (90% CI), Combination vs. Alone: 1.96 (1.61, 2.38) %
[4]; Compound B analyte, Compound B 200 mg BID alone, fed (N = 8)
  Ctau, Mean (% CV): 201 (661) ng/ml
[4]; Compound B analyte, Compound B 600 mg + Compound A 100/150 mg BID, fed (N = 14)
  Ctau, Mean (% CV): 1120 (72) ng/ml
[4]; [9]
  AUCtau, % Geometric Least Squares Means Ratio (90% CI), Combination vs. Alone: 1.51 (1.30, 1.75) %
  Cmax, % Geometric Least Squares Means Ratio (90% CI), Combination vs. Alone: 1.38 (1.20, 1.59) %
  Ctau, % Geometric Least Squares Means Ratio (90% CI), Combination vs. Alone: 1.74 (1.48, 2.03) %
[4]; Compound B analyte, Compound B 600 mg BID alone, fed (N = 16)
  Ctau, Mean (% CV): 832 (82) ng/ml
[4]; [10]
  AUC: 4.15 µg·h/mL
  Cmax: 0.618 µg/mL
[4]; [11]
  AUC: 12.7 µg·h/mL
  Cmax: 1.57 µg/mL
[4]; [12]
  AUC: 6.75 µg·h/mL
  Cmax: 0.915 µg/mL
[4]; [13]
  AUC: 16 µg·h/mL
  Cmax: 1.9 µg/mL
[5]
  tolerability: generally well-tolerated
[6]
  S6 phosphorylation in CLL cells: inhibited or decreased

## alemtuzumab
Recurrent CLL
  median progression-free survival (PFS): 4.7 months

## CC[C@H](Nc1ncnc2[nH]cnc12)c1nc2cccc(F)c2c(=O)n1-c1ccccc1 [Compound A, (S)-2-(1-(9H-purin-6-ylamino)propyl)-5-fluoro-3-phenylquinazolin-4(3H)-one]
CCL2, CCL3, and CCL4
  production of CCL2, CCL3, and CCL4 by CLL cells: reduced
[1]
  AKT phosphorylation in CLL cells: inhibited or decreased
[7]
  cell viability / sensitivity of WSU-FSCCL resistant cells: became resistant to the treatment
[3]
  AKT phosphorylation in Ramos cells: inhibited or decreased
[4]; Compound A analyte, Compound A 100 mg BID alone, fed (N = 16)
  Ctau, Mean (% CV): 127 (44) ng/ml
[4]; Compound A analyte, Compound A 150 mg + Compound B 600 mg BID, fed (N = 6)
  Ctau, Mean (% CV): 411 (29) ng/ml
[4]; [14]
  AUCtau, % Geometric Least Squares Means Ratio (90% CI), Combination vs. Alone: 1.11 (1.00, 1.24) %
  Cmax, % Geometric Least Squares Means Ratio (90% CI), Combination vs. Alone: 1.06 (0.93, 1.21) %
  Ctau, % Geometric Least Squares Means Ratio (90% CI), Combination vs. Alone: 1.23 (1.03, 1.47) %
[4]; Compound A analyte, Compound A 150 mg BID alone, fed (N = 7)
  Ctau, Mean (% CV): 320 (43) ng/ml
[4]; Compound A analyte, Compound A 100 + Compound B 200 or 600 mg BID, fed (N = 16)
  Ctau, Mean (% CV): 170 (50) ng/ml
[4]; [15]
  AUCtau, % Geometric Least Squares Means Ratio (90% CI), Combination vs. Alone: 1.17 (1.13, 1.22) %
  Cmax, % Geometric Least Squares Means Ratio (90% CI), Combination vs. Alone: 1.13 (1.07, 1.20) %
  Ctau, % Geometric Least Squares Means Ratio (90% CI), Combination vs. Alone: 1.33 (1.20, 1.48) %
[4]; healthy subjects
  exposure of Compound A, combination vs alone: minor variations
[4]; [16]
  AUC: 8.07 µg·h/mL
  Cmax: 1.66 µg/mL
[4]; [17]
  AUC: 13.8 µg·h/mL
  Cmax: 2.68 µg/mL
[4]; [18]
  AUC: 15.8 µg·h/mL
  Cmax: 2.87 µg/mL
[4]; [19]
  AUC: 9.51 µg·h/mL
  Cmax: 1.88 µg/mL
[5]; one individual, during Compound A 150 mg dosing
  adverse event leading to discontinuation of treatment: Grade 1 ALT/AST elevation
[5]
  tolerability: generally well-tolerated
WSU-FSCCL parental cells
  response of WSU-FSCCL parental cells to treatment: responsive
[6]
  S6 phosphorylation in CLL cells: inhibited or decreased

## rituximab
Recurrent CLL; addition of high-dose methylprednisone to rituximab
  median PFS: 12 months

## ofatumumab
Recurrent CLL
  median progression-free survival (PFS): 5.8 months
